Source: US20200157048A1, “(2E,4E)-5-PHENYL-PENTA-2,4-DIEN-1-ONE DERIVATIVE” (BIOWAY., INC, priority 2018, published 2020)
Entries after “also recorded” stand apart in the source; their conditions may differ.

Key:
Pparα mRNA = experiment: qRT-PCR Pparα mRNA level in steatosis-induced Huh-7 cells; format: cell-based, Human; conditions: steatosis-induced (OA/PA) Huh-7 cells; 10 μM; 24 hours
Protocol: (§1) In Experimental Example 5, the Huh-7 cells were plated in 6 wells at 4×10^5 cells/mL and incubated under an atmosphere containing 5% CO2 at 37° C.
(§2) One day later, the cell density approached about 80 to 90%. The medium was changed to an FBS-free RPMI1640 medium, and incubated under an atmosphere containing 5% CO2 at 37° C. for 24 hours.
(§3) Huh-7 cells of each well, excluding control cells, were pretreated with an OA/PA mixture for one hour to induce steatosis. The control cells were pretreated with 1% FA-free BSA.
(§4) Each well was treated with 10 μM of a test compound, and then the cells were incubated for 24 hours. The control cells and OA/PA-treated cells were treated with DMSO. Cells of a positive control were treated with 10 μM of resveratrol, 10 μM of piperine, and 10 μM of YU2014. The medium was entirely aspirated, and the cells were washed with PBS (phosphate buffered saline, Corning, Manassas, Va., USA) two times.
(§5) Total RNA was extracted using a RNeasy RNA isolation kit (Qiagen, Hilden, Germany).
(§6) 10 μL of β-mercaptoethanol (Sigma-Aldrich) per 1 mL of lysis buffer was added, thereby preparing an RNA lysis buffer. […]
(§7) An RNA concentration was measured at O.D. 260 nm using a nanophotometer N60 (Implen, Munich, Germany). The concentration and purity of RNA were measured at O.D. 260/280 nm and calculated as a ratio. […]
(§8) Quantitative analyses for the genes in Table 3 were performed.

Huh-7 cells = experiment: Oil-Red O staining and lipid accumulation in steatosis-induced Huh-7 cells; format: cell-based; conditions: Huh-7 cells pretreated with OA/PA (R-28: OA); 10, 20 or 40 μM (R-28: 2, 10, 50 μM); 24 hours
Protocol: Huh-7 cells were maintained in a RPMI1640 medium containing 10% FBS, 100 U/mL of penicillin, and 100 μg/mL of streptomycin. All reagents were purchased from Life Technologies Corporation (Grand Island, N.Y., USA).
The Huh-7 cells were incubated under an atmosphere containing 5% CO2 at 37° C.
In Experimental Example 4, the Huh-7 cells were plated in 24 wells at 3×10^5 cells/mL and incubated under an atmosphere containing 5% CO2 at 37° C.
as §2
Huh-7 cells of each well, excluding control cells, were pretreated with an OA/PA mixture (however, R-28 is OA) for 1 hour to induce steatosis. Control cells were pretreated with 1% FA-free BSA.
Each well was treated with 10 μM, 20 μM, or 40 μM of a test compound (however, for R-28, 2 μM, 10 μM and 50 μM), and cultured for 24 hours. The control cells and the OA/PA-treated cells were treated with DMSO. […]
Images were obtained from a Cytation 5 Cell Imaging Multi-Mode Reader (BioTek, Winooski, Vt., USA). […]
200 μL of isopropyl alcohol was added to each well, and the cells were collected in a 96-well plate. Absorbance was measured at 540 nm, and data was analyzed.

Srebp1c mRNA = experiment: qRT-PCR Srebp1c mRNA level in steatosis-induced Huh-7 cells; format: cell-based, Human; conditions: steatosis-induced (OA/PA) Huh-7 cells; 10 μM; 24 hours
Protocol: as §1, §2, §3, §4, §5, §6, §7, §8

Fgf21 mRNA = experiment: qRT-PCR Fgf21 mRNA level in steatosis-induced Huh-7 cells; format: cell-based, Human; conditions: steatosis-induced (OA/PA) Huh-7 cells; 10 μM; 24 hours
Protocol: as §1, §2, §3, §4, §5, §6, §7, §8

Fas mRNA = experiment: qRT-PCR Fas mRNA level in steatosis-induced Huh-7 cells; format: cell-based, Human; conditions: steatosis-induced (OA/PA) Huh-7 cells; 10 μM; 24 hours
Protocol: as §1, §2, §3, §4, §5, §6, §7, §8

Structure (SMILES): CSc1ccc(/C=C/C=C/C(=O)N2CCCCC2)cc1 [YU2014, (2E,4E)-5-(4-(methylthio)phenyl)-1-(piperidine-1-yl)penta-2,4-dien-1-one]
- Pparα mRNA level (FIG. 10) (Pparα mRNA): hardly increased; also recorded: no effect
- degree of lipid staining (ORO, absorbance at 540 nm, FIGS. 5-8) (Huh-7 cells): not greatly changed
- Srebp1c mRNA level (FIG. 14) (Srebp1c mRNA): reduce
- Fgf21 mRNA level (FIG. 12) (Fgf21 mRNA): almost no increase; also recorded: no effect
- Fas mRNA level (FIG. 13) (Fas mRNA): reduce
